Data taken from patent publication US9302999B2, “Substituted triazoles as herbicides” (E. I. DU PONT DE NEMOURS AND COMPANY, priority 2012, dated 2016).

Columns and labels:
Barnyardgrass [1] = assay: Test C postemergence: barnyardgrass; assay type: in vivo, Echinochloa crus-galli; conditions: 125 g ai/ha, scale 0 to 100, 0 no effect, 100 complete control
Oilseed Rape [2] = assay: Test C postemergence: oilseed rape; assay type: in vivo; conditions: 62 g ai/ha, scale 0 to 100 (0 no effect, 100 complete control)
How it was run: (§1)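 Visual 0–100 injury score vs untreated controls (0 none, 100 complete control), taken 13–15 d after treatment. Postemergence spray on potted plants, 2–18 cm, 1–4 leaves; greenhouse.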

Waterhemp [3] = assay: Test C postemergence: waterhemp; assay type: in vivo; conditions: 62 g ai/ha, scale 0 to 100 (0 no effect, 100 complete control)
How it was run: as §1

Waterhemp [4] = assay: Test C postemergence: waterhemp; assay type: in vivo, Amaranthus rudis
[5] = test system: barnyardgrass (Echinochloa crus-galli); assay: Test C pre-/postemergence: barnyardgrass; assay type: in vivo; conditions: Preemergence, 250 g ai/ha; scale 0 to 100, 0 no effect, 100 complete control
Barnyardgrass [6] = assay: Test C preemergence: barnyardgrass; assay type: in vivo, Echinochloa crus-galli
Oilseed Rape [7] = assay: Test C pre-/postemergence: oilseed rape; assay type: in vivo
Oilseed Rape [8] = assay: Test C preemergence: oilseed rape; assay type: in vivo, Brassica napus; conditions: 125 g ai/ha, scale 0 to 100, 0 no effect, 100 complete control
Oilseed Rape [9] = assay: Test C preemergence: oilseed rape; assay type: in vivo; conditions: 62 g ai/ha, scale of 0 to 100, 0 is no effect, 100 is complete control
Waterhemp [10] = assay: Test C pre-/postemergence: waterhemp; assay type: in vivo; conditions: Postemergence, 31 g ai/ha; scale 0 to 100 (0 no effect, 100 complete control)
[11] = 125 g ai/ha, scale 0 to 100, 0 no effect, 100 complete control

## CCOc1nn(-c2ccc(Cl)cc2)nc1Cc1ccnc(C(F)(F)F)c1 [Compound 188]
Barnyardgrass [1]
  Plant response rating, Barnyardgrass: 98
Oilseed Rape [2]
  Plant response rating, Oilseed Rape: 90
Waterhemp [3]
  Plant response rating, Waterhemp: 100
Waterhemp [4]; [11]
  Plant response rating, Waterhemp: 100
Waterhemp [4]; 250 g ai/ha, scale 0 to 100 (0 no effect, 100 complete control)
  Plant response rating, Waterhemp: 100
[5]
  Plant response rating, Barnyardgrass: 100
Barnyardgrass [6]; 31 g ai/ha, scale 0 (no effect) to 100 (complete control)
  Plant response rating, Barnyardgrass: 80
Barnyardgrass [6]; 62 g ai/ha, scale of 0 to 100, 0 is no effect, 100 is complete control
  Plant response rating, Barnyardgrass: 100
Barnyardgrass [6]; [11]
  Plant response rating, Barnyardgrass: 100
Oilseed Rape [7]; Postemergence, 31 g ai/ha, scale 0 to 100 (0 no effect, 100 complete control)
  Plant response rating, Oilseed Rape: 40
Oilseed Rape [7]; Preemergence, 250 g ai/ha, scale 0 to 100, 0 no effect, 100 complete control
  Plant response rating, Oilseed Rape: 100
Oilseed Rape [8]
  Plant response rating, Oilseed Rape: 100
Oilseed Rape [9]
  Plant response rating, Oilseed Rape: 70
Waterhemp [10]
  Plant response rating, Waterhemp: 70
